In PubChem BioAssay AID248 (DTP/NCI, 2004):
Inconclusive results and toxic doses are left out. No stated cut-off is given here; in the data, active means T/C of 150% or more; inactive means T/C below 125%.

Test system: L1210 leukemia ip in BDF1 mice, survival T/C
Assay: NCI In Vivo Anticancer Drug Screen. Data for tumor model L1210 Leukemia (intraperitoneal) in B6D2F1 (BDF1) mice
Settings: endpoint: mean survival time, higher = longer survival
How it was run: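 Survival endpoint. Drug-treated group vs vehicle group, expressed as T divided by C. Tumor passaged by transplantation.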

[1] = dose: 100.0 mg/kg/injection, schedule: Q01DX009 (ip), vehicle: Klucel (hydroxypropylcellulose) (HPC)
[2] = dose: 200.0 mg/kg/injection, schedule: Q01DX009 (ip), vehicle: Klucel (hydroxypropylcellulose) (HPC)
[3] = dose: 400.0 mg/kg/injection, schedule: Q01DX009 (ip), vehicle: Klucel (hydroxypropylcellulose) (HPC)
[4] = dose: 100.0 mg/kg/injection, schedule: Q04DX003 (ip), vehicle: Klucel (hydroxypropylcellulose) (HPC)
[5] = dose: 200.0 mg/kg/injection, schedule: Q04DX003 (ip), vehicle: Klucel (hydroxypropylcellulose) (HPC)
[6] = dose: 400.0 mg/kg/injection, schedule: Q04DX003 (ip), vehicle: Klucel (hydroxypropylcellulose) (HPC)
[7] = dose: 100.0 mg/kg/injection, schedule: Q01DX001 (ip), vehicle: carboxymethylcellulose (CMC)
[8] = dose: 200.0 mg/kg/injection, schedule: Q01DX001 (ip), vehicle: carboxymethylcellulose (CMC)
[9] = dose: 400.0 mg/kg/injection, schedule: Q01DX001 (ip), vehicle: carboxymethylcellulose (CMC)
[10] = dose: 100.0 mg/kg/injection, schedule: Q01DX001 (ip), vehicle: saline
[11] = dose: 200.0 mg/kg/injection, schedule: Q01DX001 (ip), vehicle: saline
[12] = dose: 400.0 mg/kg/injection, schedule: Q01DX001 (ip), vehicle: saline
[13] = dose: 100.0 mg/kg/injection, schedule: Q04DX002 (ip), vehicle: saline
[14] = dose: 200.0 mg/kg/injection, schedule: Q04DX002 (ip), vehicle: saline
[15] = dose: 400.0 mg/kg/injection, schedule: Q04DX002 (ip), vehicle: saline
[16] = dose: 50.0 mg/kg/injection, schedule: Q01DX001 (ip), vehicle: carboxymethylcellulose (CMC)
[17] = dose: 100.0 mg/kg/injection, schedule: Q04DX003 (ip), vehicle: saline with Tween-80
[18] = dose: 200.0 mg/kg/injection, schedule: Q04DX003 (ip), vehicle: saline with Tween-80
[19] = dose: 400.0 mg/kg/injection, schedule: Q04DX003 (ip), vehicle: saline with Tween-80
[20] = dose: 50.0 mg/kg/injection, schedule: Q01DX001 (ip), vehicle: saline
[21] = dose: 100.0 mg/kg/injection, schedule: Q04DX002 (ip), vehicle: gum acacia
[22] = dose: 200.0 mg/kg/injection, schedule: Q04DX002 (ip), vehicle: gum acacia
[23] = dose: 400.0 mg/kg/injection, schedule: Q04DX002 (ip), vehicle: gum acacia
[24] = dose: 100.0 mg/kg/injection, schedule: Q01DX009 (ip), vehicle: saline with Tween-80
[25] = dose: 50.0 mg/kg/injection, schedule: Q01DX009 (ip), vehicle: Klucel (hydroxypropylcellulose) (HPC)

Measured: T/C

CCCc1c(N)nc(=S)[nH]c1C(=O)O
inactive: [1] 102 % of control | dose: 100.0 mg/kg/injection, schedule: Q04DX003 (ip), vehicle: saline 96 % of control | [2] 97 % of control | dose: 200.0 mg/kg/injection, schedule: Q04DX003 (ip), vehicle: saline 119 % of control | [3] 94 % of control

O=C(COc1ccccc1)NCCBr
inactive: [1] 96 % of control | [4] 110 % of control | dose: 133.0 mg/kg/injection, schedule: Q04DX003 (ip), vehicle: Klucel (hydroxypropylcellulose) (HPC) 98 % of control | [2] 102 % of control | [5] 98 % of control | dose: 300.0 mg/kg/injection, schedule: Q04DX003 (ip), vehicle: Klucel (hydroxypropylcellulose) (HPC) 98 % of control | [3] 95 % of control | [6] 101 % of control

Cc1cccc(C(=O)NO)c1O
inactive: dose: 75.0 mg/kg/injection, schedule: Q01DX001 (ip), vehicle: saline 101 % of control | dose: 150.0 mg/kg/injection, schedule: Q01DX001 (ip), vehicle: saline 98 % of control

CCOc1nn2nnnc2c2ccccc12
inactive: dose: 37.5 mg/kg/injection, schedule: Q04DX003 (ip), vehicle: saline with Tween-80 97 % of control | dose: 75.0 mg/kg/injection, schedule: Q04DX003 (ip), vehicle: saline with Tween-80 97 % of control | dose: 150.0 mg/kg/injection, schedule: Q04DX003 (ip), vehicle: saline with Tween-80 103 % of control

C(=N/N=C/c1ccccn1)/c1cccnc1
inactive: [7] 94 % of control | [8] 96 % of control | [9] 96 % of control

O=C(c1ccccc1)c1cc(-c2cc(=O)cc(-c3cc(C(=O)c4ccccc4)c(O)cc3O)o2)c(O)cc1O
inactive: [10] 96 % of control | [11] 105 % of control | [12] 94 % of control

Cc1ccc(C(C)(N=[N+]=[N-])c2ccccc2)cc1C (centres undefined)
inactive: [10] 93 % of control | [11] 96 % of control | [12] 109 % of control

N=C1SCCS1
inactive: [13] 92 % of control | [14] 101 % of control | [15] 105 % of control

CN1CCC(CNC(=O)c2ccccc2)c2ccccc21 (centres undefined)
inactive: [16] 100 % of control | [7] 96 % of control | [8] 92 % of control | [9] 102 % of control

CC(C)=C(Cl)C(C)(C)C(=O)O
inactive: [17] 103 % of control | [18] 101 % of control | [19] 97 % of control

O/N=C/c1ccc2c(c1)OCO2
inactive: [20] 96 % of control | [10] 96 % of control | [21] 106 % of control | [11] 102 % of control | [22] 110 % of control | [12] 96 % of control | [23] 92 % of control

CC1CCCCC1C(=O)N1CCCCCC1 (centres undefined)
inactive: [13] 108 % of control | [14] 99 % of control | [15] 108 % of control

CC(C)=CC/C(C)=C/C=N\Nc1ccc([N+](=O)[O-])cc1[N+](=O)[O-]
inactive: [17] 98 % of control | [18] 95 % of control | [19] 93 % of control

NC(=S)N/N=C/c1cc2c(cc1[N+](=O)[O-])OCO2
inactive: [16] 98 % of control | [7] 101 % of control | [8] 93 % of control

OC12Cc3ccccc3C1=NN(c1ccccc1)C2c1ccccc1 (centres undefined)
inactive: dose: 25.0 mg/kg/injection, schedule: Q01DX009 (ip), vehicle: saline with Tween-80 101 % of control | dose: 50.0 mg/kg/injection, schedule: Q01DX009 (ip), vehicle: saline with Tween-80 104 % of control | [24] 90 % of control | [17] 93 % of control | [18] 97 % of control | [19] 91 % of control

CC(=O)Nc1cccc(OCc2ccc([N+](=O)[O-])cc2)c1
inactive: [25] 111 % of control | [1] 97 % of control | [2] 97 % of control

CN(C)c1nn2c(-c3ccccc3)nnc2o1
inactive: dose: 100.0 mg/kg/injection, schedule: Q01DX009 (ip), vehicle: saline 94 % of control | dose: 200.0 mg/kg/injection, schedule: Q01DX009 (ip), vehicle: saline 102 % of control | dose: 400.0 mg/kg/injection, schedule: Q01DX009 (ip), vehicle: saline 100 % of control

COc1cc(OC)cc(C(=O)Cl)c1
inactive: [24] 100 % of control | dose: 200.0 mg/kg/injection, schedule: Q01DX009 (ip), vehicle: saline with Tween-80 103 % of control | dose: 400.0 mg/kg/injection, schedule: Q01DX009 (ip), vehicle: saline with Tween-80 86 % of control

COc1ccccc1/C=C\C=O
inactive: [7] 103 % of control | [8] 100 % of control | [9] 97 % of control

CCOc1ccc(Br)cc1/C=N\NC(=O)c1ccccc1N(C)C
inactive: [21] 90 % of control | [22] 100 % of control | [23] 90 % of control

[N-]=[N+]=NC1=C(c2ccccc2)C(=O)C(N=[N+]=[N-])=C(c2ccccc2)C1=O
inactive: [10] 88 % of control | [11] 95 % of control | [12] 90 % of control

O=C(CCc1ccccc1)Nc1ccccc1
inactive: [20] 96 % of control | [10] 106 % of control | [4] 97 % of control | [11] 101 % of control | [5] 102 % of control | [12] 102 % of control | [6] 89 % of control

c1ccc2sc(SCSc3nc4ccccc4s3)nc2c1
inactive: dose: 50.0 mg/kg/injection, schedule: Q04DX003 (ip), vehicle: saline with Tween-80 93 % of control | [17] 90 % of control | [18] 100 % of control

CC/C(=N\N=C(/CC)c1ccccc1)c1ccccc1
inactive: dose: 25.0 mg/kg/injection, schedule: Q01DX009 (ip), vehicle: Klucel (hydroxypropylcellulose) (HPC) 98 % of control | [25] 101 % of control | [1] 98 % of control | dose: 100.0 mg/kg/injection, schedule: Q04DX002 (ip), vehicle: Klucel (hydroxypropylcellulose) (HPC) 96 % of control | dose: 200.0 mg/kg/injection, schedule: Q04DX002 (ip), vehicle: Klucel (hydroxypropylcellulose) (HPC) 107 % of control | [3] 86 % of control | dose: 400.0 mg/kg/injection, schedule: Q04DX002 (ip), vehicle: Klucel (hydroxypropylcellulose) (HPC) 91 % of control

CN=C(N)c1ccc(N=C(N)c2cccc(C(N)=Nc3ccc(C(N)=NC)cc3)c2)cc1
inactive: dose: 15.0 mg/kg/injection, schedule: Q01DX Z (ip), vehicle: saline 97 % of control | dose: 30.0 mg/kg/injection, schedule: Q01DX Z (ip), vehicle: saline 120 % of control

Cn1c(O)c(N=NC(=O)Cc2c[nH]c3ccccc23)c2ccccc21
inactive: dose: 100.0 mg/kg/injection, schedule: Q01DX001 (ip), vehicle: other 101 % of control | dose: 200.0 mg/kg/injection, schedule: Q01DX001 (ip), vehicle: other 95 % of control | dose: 400.0 mg/kg/injection, schedule: Q01DX001 (ip), vehicle: other 95 % of control
